Reference: publication PMC9596378, “Discovery and molecular basis of subtype-selective cyclophilin inhibitors” (Nature Chemical Biology, 2022)

molecular target: CypD (Homo sapiens, UniProt P30405); assay: Chymotrypsin coupled prolyl-isomerase assay; details: not given
Method: Five microliters of compound pre-dissolved in 5% DMSO/assay buffer was then added to appropriate wells and incubated at 2–3 °C for 5 min. Five microliters of 0.5 mM α-chymotrypsin from bovine pancreas (Type II, lyophilized powder, Millipore-Sigma) in 20% 1 mM HCl/Assay Buffer was then added to each well and incubated at 2–3 °C for 5 min. The plate was then quickly transferred to a FLIPR Tetra High-Throughput Cellular Screening System (Molecular Devices). Using the internal liquid handling system of the FLIPR, 1 µL 0.5 mM Suc-AAPF-AMC (Chymotrypsin Substrate II, Millipore-Sigma) dissolved in 0.55 M LiCl/2,2,2-trifluoroethanol was added to each well, which was then mixed for 5 s, followed by immediate fluorescence measurements every 1 s for 330 s using a 360–380 nm excitation LED module and a 400–460 nm emission filter. […] Raw fluorescence data was analyzed by non-linear regression analysis with Prism v.9 by fitting one-phase association curves to each well. […] Rate constants calculated for each well (s^−1) were then normalized to substrate only (no prolyl-isomerase) and enzyme + substrate only controls.

Sequence of CypD (P30405 45-207): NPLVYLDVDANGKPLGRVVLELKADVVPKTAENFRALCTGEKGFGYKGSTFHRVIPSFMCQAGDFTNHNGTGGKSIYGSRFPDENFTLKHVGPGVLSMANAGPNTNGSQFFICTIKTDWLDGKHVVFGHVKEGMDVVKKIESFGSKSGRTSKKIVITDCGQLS

NCCOCCNC(=O)C1CCNC(=O)C=CC(=O)N2CCCC(C2)C(=O)NC(Cc2ccco2)C(=O)NCc2ccccc2C(=O)N1 (centres unmarked) [Compound A1] and NCCOCCNC(=O)C1CCNC(=O)C=CC(=O)N2CCCC(C2)C(=O)NC(Cc2ccco2)C(=O)NCc2ccccc2CC(=O)N1 (centres unmarked) [Compound A7] cannot be ordered by IC50: > 100 µM for the first, > 100 µM for the second.

NCCOCCNC(=O)C1CCNC(=O)C=CC(=O)N2CCCC(C2)C(=O)NC(Cc2ccco2)C(=O)Nc2ccccc2CC(=O)N1 (centres unmarked) [Compound A2] and NCCOCCNC(=O)C1CCNC(=O)C=CC(=O)N2CCCC(C2)C(=O)NC(Cc2ccco2)C(=O)NCc2ccccc2CC(=O)N1 (centres unmarked) [Compound A21] cannot be ordered by IC50: > 100 µM for the first, > 100 µM for the second.

NCCOCCNC(=O)C1CCNC(=O)C=CC(=O)N2CCCC(C2)C(=O)NC(Cc2ccco2)C(=O)NC2C=CC(C2)C(=O)N1 (centres unmarked) [Compound A4] and NCCOCCNC(=O)C1CCNC(=O)C=CC(=O)N2CCCC(C2)C(=O)NC(Cc2ccco2)C(=O)Nc2ccccc2C(=O)N1 (centres unmarked) [Compound A6] cannot be ordered by IC50: > 100 µM for the first, > 100 µM for the second.

CC1NC(=O)C2CCCN(C2)C(=O)C=CC(=O)NCCC(C(=O)NCCOCCN)NC(=O)Cc2ccccc2CNC1=O (centres unmarked) [Compound A8] and CC(C)CC1NC(=O)C2CCCN(C2)C(=O)C=CC(=O)NCCC(C(=O)NCCOCCN)NC(=O)Cc2ccccc2CNC1=O (centres unmarked) [Compound A10] cannot be ordered by IC50: > 100 µM for the first, > 100 µM for the second.

Compared with NCCOCCNC(=O)C1CCNC(=O)C=CC(=O)N2CCCC(C2)C(=O)NC(Cc2ccccc2)C(=O)NCc2ccccc2CC(=O)N1 (centres unmarked) [Compound A9], NCCOCCNC(=O)C1CCNC(=O)C=CC(=O)N2CCCC(C2)C(=O)NC(CCc2ccccc2)C(=O)NCc2ccccc2CC(=O)N1 (centres unmarked) [Compound A16] is higher in IC50: 17 ± 6 µM for the first, > 100 µM for the second. The first is the more potent here.

NCCOCCNC(=O)C1CCNC(=O)C=CC(=O)N2CCCC(C2)C(=O)NC(CC=Cc2ccccc2)C(=O)NCc2ccccc2CC(=O)N1 (centres unmarked) [Compound A11] and Cc1cccc(CC2NC(=O)C3CCCN(C3)C(=O)C=CC(=O)NCCC(C(=O)NCCOCCN)NC(=O)Cc3ccccc3CNC2=O)c1 (centres unmarked) [Compound A19] are within error of each other in IC50: 17 ± 4 µM for the first, 22 ± 3 µM for the second.

First: NCCOCCNC(=O)C1CCNC(=O)C=CC(=O)N2CCCC(C2)C(=O)NC(CC2CCCCC2)C(=O)NCc2ccccc2CC(=O)N1 (centres unmarked) [Compound A12]
Second: NCCOCCNC(=O)C1CCNC(=O)C=CC(=O)N2CCCC(C2)C(=O)NC(Cc2cccs2)C(=O)NCc2ccccc2CC(=O)N1 (centres unmarked) [Compound A17]
The IC50 of the first is higher: > 100 µM for the first, 14 ± 3 µM for the second. The second is the more potent here.

First: NCCOCCNC(=O)C1CCNC(=O)C=CC(=O)N2CCCC(C2)C(=O)NC(Cc2ccc(-c3ccccc3)cc2)C(=O)NCc2ccccc2CC(=O)N1 (centres unmarked) [Compound A15]
Second: CC(C)(C)c1ccc(CC2NC(=O)C3CCCN(C3)C(=O)C=CC(=O)NCCC(C(=O)NCCOCCN)NC(=O)Cc3ccccc3CNC2=O)cc1 (centres unmarked) [Compound A20]
The IC50 of the first is 1.8-fold higher: 18 ± 3 µM for the first, 10 ± 2 µM for the second. The second is the more potent here.

NCCOCCNC(=O)C1CCNC(=O)C=CC(=O)N2CCCCC2C(=O)NC(Cc2ccco2)C(=O)NCc2ccccc2CC(=O)N1 (centres unmarked) [Compound A23] and NCCOCCNC(=O)C1CCNC(=O)C=CC(=O)N2CCCC2CC(=O)NC(Cc2ccco2)C(=O)NCc2ccccc2CC(=O)N1 (centres unmarked) [JOCBt] cannot be ordered by IC50: > 100 µM for the first, > 100 µM for the second.

NCCOCCNC(=O)C1CCNC(=O)C=CC(=O)N2CCC(C2)C(=O)NC(Cc2ccco2)C(=O)NCc2ccccc2CC(=O)N1 (centres unmarked) [Compound A24] and NCCOCCNC(=O)C1CCNC(=O)C=CC(=O)N2CCCC(C2)C(=O)NC(Cc2ccco2)C(=O)NCc2ccccc2CC(=O)N1 (centres unmarked) [JOMBc] cannot be ordered by IC50: > 100 µM for the first, > 100 µM for the second.

Going from NCCOCCNC(=O)C1CCNC(=O)C=CC(=O)NC2CCCC(C2)C(=O)NC(Cc2ccco2)C(=O)NCc2ccccc2CC(=O)N1 (centres unmarked) [Compound A28] to NCCOCCNC(=O)C1CCNC(=O)Cc2ccccc2CNC(=O)C(Cc2ccco2)NC(=O)C2CCCN(C2)C(=O)C=CC(=O)N1 (centres unmarked) [JOMFc], the IC50 rises from 10 ± 2 µM to > 100 µM. The first is the more potent here.

Going from NCCOCCNC(=O)C1CCNC(=O)C=CC(=O)NC2CCCC(C2)C(=O)NC(Cc2ccco2)C(=O)NCc2ccccc2CC(=O)N1 (centres unmarked) [Compound A29] to NCCOCCNC(=O)C1CCNC(=O)Cc2ccccc2CNC(=O)C(Cc2ccco2)NC(=O)C2CCCN(C2)C(=O)C=CC(=O)N1 (centres unmarked) [JOMFt], the IC50 rises from 6.2 ± 0.9 µM to ~90 µM (15-fold). The first is the more potent here.

NCCOCCNC(=O)C1CCNC(=O)CCC(=O)N2CCCC(C2)C(=O)NC(Cc2ccco2)C(=O)NCc2ccccc2CC(=O)N1 (centres unmarked) [Compound A30] and NCCOCCNC(=O)C1CCCNC(=O)C=CC(=O)N2CCCC(C2)C(=O)NC(Cc2ccco2)C(=O)NCc2ccccc2CC(=O)N1 (centres unmarked) [JOMCt] cannot be ordered by IC50: > 100 µM for the first, > 100 µM for the second.

First: NC(=O)C1CCNC(=O)C=CC(=O)N2CCCC(CC(=O)NC(Cc3ccco3)C(=O)NCc3ccccc3CC(=O)N1)C2 (centres unmarked) [JOBBc-A]
Second: NC(=O)C1CCNC(=O)C=CC(=O)N2CCCC(C2)C(=O)NC(Cc2ccco2)C(=O)NCc2ccccc2CC(=O)N1 (centres unmarked) [JOMBt-A]
The IC50 of the first is higher: > 100 µM for the first, 18 ± 3 µM for the second. The second is the more potent here.

Compared with NCCOCCNC(=O)C1CCNC(=O)C=CC(=O)N2CCCC(CC(=O)NC(Cc3ccco3)C(=O)NCc3ccccc3CC(=O)N1)C2 (centres unmarked) [JOBBt], NCCOCCNC(=O)C1CNC(=O)C=CC(=O)N2CCCC(C2)C(=O)NC(Cc2ccco2)C(=O)NCc2ccccc2CC(=O)N1 (centres unmarked) [JOMAt] is higher in IC50: 49 ± 6 µM for the first, > 100 µM for the second. The first is the more potent here.

First: NC(=O)C1CCNC(=O)C=CC(=O)NC2CCC(CC2)C(=O)NC(Cc2ccco2)C(=O)NCc2ccccc2CC(=O)N1 (centres unmarked) [JOGBt-A]
Second: NCCCOCCOCCOCCCNC(=O)C1CCNC(=O)C=CC(=O)N2CCCC(C2)C(=O)NC(Cc2ccco2)C(=O)NCc2ccccc2CC(=O)N1 (centres unmarked) [JOMBt-D]
The IC50 of the first is higher: > 100 µM for the first, 5.2 ± 0.3 µM for the second. The second is the more potent here.

CC(C)(C)CC1NC(=O)C(CC2CCCCC2)NC(=O)C2CCCN2C(=O)C=CC(=O)NCc2cccc(c2)CC(C(=O)NCCOCCN)NC1=O (centres unmarked) [HJJJt/c] was tested, and the “CypD prolyl-isomerase inhibition (in words)” value was “no prolyl-isomerase inhibition”.
With CC(C)(C)CC1NC(=O)C(Cc2ccco2)NC(=O)C2CCCN2C(=O)C=CC(=O)NCc2cccc(c2)CC(C(=O)NCCOCCN)NC1=O (centres unmarked) [HOJJt/c] the “CypD prolyl-isomerase inhibition (in words)” value was “no prolyl-isomerase inhibition”.

same assay, conditions: IC50 CypD cis, cis olefin isomer

CC(C)(C)CC1NC(=O)C(CC2CCCCC2)NC(=O)C2CCCN2C(=O)C=CC(=O)NCc2cccc(c2)CC(C(=O)NCCOCCN)NC1=O (centres unmarked) [HJJJt/c] and CC(C)(C)CC1NC(=O)C(Cc2ccco2)NC(=O)C2CCCN2C(=O)C=CC(=O)NCc2cccc(c2)CC(C(=O)NCCOCCN)NC1=O (centres unmarked) [HOJJt/c] cannot be ordered by IC50: > 100 µM for the first, > 100 µM for the second.

NCCOCCNC(=O)C1CNC(=O)C=CC(=O)NC2CCC(CC2)C(=O)NC(Cc2ccco2)C(=O)NCc2ccccc2CC(=O)N1 (centres unmarked) [JOGA] and NCCOCCNC(=O)C1CCNC(=O)C=CC(=O)N2CCCC(C2)C(=O)NC(Cc2ccco2)C(=O)NCc2ccccc2CC(=O)N1 (centres unmarked) [JOMB] cannot be ordered by IC50: > 100 µM for the first, > 100 µM for the second.

same assay, conditions: IC50 CypD trans, trans olefin isomer

CC(C)(C)CC1NC(=O)C(CC2CCCCC2)NC(=O)C2CCCN2C(=O)C=CC(=O)NCc2cccc(c2)CC(C(=O)NCCOCCN)NC1=O (centres unmarked) [HJJJt/c] and CC(C)(C)CC1NC(=O)C(Cc2ccco2)NC(=O)C2CCCN2C(=O)C=CC(=O)NCc2cccc(c2)CC(C(=O)NCCOCCN)NC1=O (centres unmarked) [HOJJt/c] cannot be ordered by IC50: > 100 µM for the first, > 100 µM for the second.

With NCCOCCNC(=O)C1CNC(=O)C=CC(=O)NC2CCC(CC2)C(=O)NC(Cc2ccco2)C(=O)NCc2ccccc2CC(=O)N1 (centres unmarked) [JOGA] the IC50 was > 100 µM.
